Measured values reported in ChEMBL document CHEMBL1201862, “PubChem BioAssay data set” (2004).
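Five concentrations, 48 hours, 96-well plates. The concentration for 50% growth inhibition is given as GI50.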 Activity calls are given as the source filed them. Cut-off read from the data, not from the text of the source: active = GI50 up to about 1.1 µM and inactive = higher.

How the values were obtained:
Test in all cases: inhibition of tumour cell growth, NCI panel, 48 h
A549 = tested on: A549
SK-MEL-28 = tested on: SK-MEL-28
KM12 = tested on: KM12
HT-29 = tested on: HT-29
OVCAR-3 = tested on: OVCAR-3
HOP-92 = tested on: HOP-92
RXF 393 = tested on: RXF 393
HCT-15 = tested on: HCT-15
OVCAR-4 = tested on: OVCAR-4
SN12C = tested on: SN12C
SK-OV-3 = tested on: SK-OV-3
OVCAR-5 = tested on: OVCAR-5
OVCAR-8 = tested on: OVCAR-8
HCC 2998 = tested on: HCC 2998
SF-268 = tested on: SF-268
UO-31 = tested on: UO-31
HOP-62 = tested on: HOP-62
Malme-3M = tested on: Malme-3M
MCF7 = tested on: MCF7

SMILES	GI50 (A549)	GI50 (SK-MEL-28)	GI50 (KM12)	GI50 (HT-29)	GI50 (OVCAR-3)	GI50 (HOP-92)	GI50 (RXF 393)	GI50 (HCT-15) [µM]	GI50 (OVCAR-4)	GI50 (SN12C)	GI50 (SK-OV-3)	GI50 (OVCAR-5)	GI50 (OVCAR-8)	GI50 (HCC 2998)	GI50 (SF-268)	GI50 (UO-31)	GI50 (HOP-62)	GI50 (Malme-3M)	GI50 (MCF7)
CNC(C)Cc1ccc(O)cc1 (configuration not stated)	> 100 µM (inactive)	> 100 µM (inactive)	> 100 µM (inactive)	> 100 µM (inactive)	> 100 µM (inactive)	> 100 µM (inactive)	> 100 µM (inactive)	> 100	> 100 µM (inactive)	> 100 µM (inactive)	> 100 µM (inactive)	> 100 µM (inactive)	> 100 µM (inactive)	> 100 µM (inactive)	> 100 µM (inactive)	> 100 µM (inactive)	> 100 µM (inactive)	> 100 µM (inactive)	
CC(=O)c1ccc2c(c1)c1c(C)c3c[n+](C)ccc3c(C)c1n2C	13.9 µM (inactive)	7.87 µM (inactive)	10.6 µM (inactive)	13.2 µM (inactive)	12 µM (inactive)	11.8 µM (inactive)	11.4 µM (inactive)	17.6	4.85 µM (inactive)	0.499 µM (active)	16.1 µM (inactive)	28.9 µM (inactive)	1.45 µM (inactive)	29.5 µM (inactive)	0.469 µM (active)	3.36 µM (inactive)	7.36 µM (inactive)	10.4 µM (inactive)	3.1 µM (inactive)
Oc1cccc2nc3cc(CN4CCOCC4)c(CN4CCOCC4)cc3nc12	40.5 µM (inactive)	> 100 µM (inactive)	67 µM (inactive)	48.8 µM (inactive)	42.2 µM (inactive)	46.7 µM (inactive)	77.3 µM (inactive)	37.4	67.3 µM (inactive)	79.3 µM (inactive)	50.6 µM (inactive)	43.8 µM (inactive)	44.7 µM (inactive)	50.8 µM (inactive)	48.2 µM (inactive)	29.6 µM (inactive)	52 µM (inactive)	57.5 µM (inactive)	
CC1NOC(=O)C1/N=N/c1ccccc1Cl (configuration not stated)	63.7 µM (inactive)	32.7 µM (inactive)	64.7 µM (inactive)		33.8 µM (inactive)	21.6 µM (inactive)	26.4 µM (inactive)		39.9 µM (inactive)	40.6 µM (inactive)	28.3 µM (inactive)	34.8 µM (inactive)	> 100 µM (inactive)	48.3 µM (inactive)	35.1 µM (inactive)	13.9 µM (inactive)	92.3 µM (inactive)	25.5 µM (inactive)	
O=C1c2ccccc2C(=O)N1CCn1nc(-c2ccccc2)cc(-c2ccccc2)c1=O	61.5 µM (inactive)	> 100 µM (inactive)	> 100 µM (inactive)	52.6 µM (inactive)	27.2 µM (inactive)	37.8 µM (inactive)	> 100 µM (inactive)	38.2	42.1 µM (inactive)	44.6 µM (inactive)	> 100 µM (inactive)	> 100 µM (inactive)	33.3 µM (inactive)	67.8 µM (inactive)	> 100 µM (inactive)	18.9 µM (inactive)	> 100 µM (inactive)	> 100 µM (inactive)	
O=C1C(=O)N(c2cc(Cl)ccc2Cl)C(=O)C(=O)C1c1nc2ccccc2o1	> 100 µM (inactive)	> 100 µM (inactive)	> 31.6 µM (inactive)	> 100 µM (inactive)	> 67.5 µM (inactive)	> 100 µM (inactive)	> 100 µM (inactive)	> 100	> 100 µM (inactive)	> 100 µM (inactive)	> 100 µM (inactive)	> 100 µM (inactive)	> 100 µM (inactive)	> 100 µM (inactive)	> 100 µM (inactive)	> 70.8 µM (inactive)	> 100 µM (inactive)	> 100 µM (inactive)	
CN(C)C(=O)/C=C/c1c[nH]c(=O)[nH]c1=O	> 500 µM (inactive)	> 500 µM (inactive)	> 500 µM (inactive)	> 500 µM (inactive)	> 500 µM (inactive)	> 500 µM (inactive)	> 500 µM (inactive)	> 500	> 500 µM (inactive)	> 500 µM (inactive)	> 254 µM (inactive)	> 500 µM (inactive)	> 500 µM (inactive)	> 500 µM (inactive)	> 500 µM (inactive)	> 500 µM (inactive)	> 500 µM (inactive)	> 500 µM (inactive)	> 500 µM (inactive)
C#C[C@H]1CCCCCC1O (some centres not stated)	> 100 µM (inactive)	> 100 µM (inactive)	> 100 µM (inactive)	> 100 µM (inactive)	> 100 µM (inactive)	> 100 µM (inactive)	> 100 µM (inactive)	> 100	> 100 µM (inactive)	> 100 µM (inactive)	> 100 µM (inactive)	> 100 µM (inactive)	> 100 µM (inactive)	> 100 µM (inactive)	> 100 µM (inactive)	> 100 µM (inactive)	> 100 µM (inactive)	65.6 µM (inactive)	
N=c1oc2cc(O)c(O)cc2cc1C(N)=O	> 100 µM (inactive)	> 100 µM (inactive)	> 100 µM (inactive)	> 100 µM (inactive)	> 100 µM (inactive)	> 100 µM (inactive)	> 100 µM (inactive)	> 100	> 100 µM (inactive)	> 100 µM (inactive)	> 100 µM (inactive)	> 100 µM (inactive)	> 100 µM (inactive)	> 100 µM (inactive)	81.3 µM (inactive)	> 100 µM (inactive)	> 100 µM (inactive)	> 100 µM (inactive)	
CN(C)CC(CC1=C(CC(CN(C)C)N(C)C)CCC1)N(C)C (configuration not stated)	> 100 µM (inactive)	> 100 µM (inactive)	> 100 µM (inactive)	> 100 µM (inactive)	> 100 µM (inactive)	> 100 µM (inactive)	> 100 µM (inactive)	> 100	> 100 µM (inactive)	> 100 µM (inactive)	> 100 µM (inactive)	> 100 µM (inactive)	> 100 µM (inactive)	> 100 µM (inactive)	> 100 µM (inactive)	> 100 µM (inactive)	> 100 µM (inactive)	> 100 µM (inactive)	> 100 µM (inactive)
NC(=O)c1csc(CCCCCCc2nc(C(N)=O)cs2)n1	> 100 µM (inactive)	> 100 µM (inactive)	> 59.4 µM (inactive)	> 40.9 µM (inactive)	> 100 µM (inactive)	> 100 µM (inactive)	> 100 µM (inactive)	> 100	> 57.7 µM (inactive)	> 100 µM (inactive)	> 100 µM (inactive)	> 100 µM (inactive)	> 100 µM (inactive)	> 100 µM (inactive)	> 100 µM (inactive)	> 100 µM (inactive)	> 100 µM (inactive)	> 100 µM (inactive)	
O=C1NN=C(c2ccc([N+](=O)[O-])cc2)C1n1nc(-c2ccccc2)c2ccccc2c1=O (configuration not stated)	> 80 µM (inactive)	> 100 µM (inactive)	> 100 µM (inactive)	> 100 µM (inactive)	> 100 µM (inactive)	> 100 µM (inactive)	> 100 µM (inactive)	> 45.2	> 100 µM (inactive)	> 100 µM (inactive)	> 100 µM (inactive)	> 100 µM (inactive)	> 88.1 µM (inactive)	> 100 µM (inactive)	> 100 µM (inactive)	> 100 µM (inactive)	> 100 µM (inactive)	> 100 µM (inactive)	
COc1cc([C@@H]2c3cc4c(cc3[C@@H](NC(=O)c3cccc(N)c3)C3COC(=O)[C@@H]32)OCO4)cc(OC)c1O (some centres not stated)	0.0465 µM (active)	8.63 µM (inactive)	2.42 µM (inactive)	2.83 µM (inactive)	4.35 µM (inactive)	0.946 µM (active)	3.42 µM (inactive)	1.99	17.4 µM (inactive)	0.445 µM (active)	1.97 µM (inactive)	2.58 µM (inactive)	1.97 µM (inactive)	2.21 µM (inactive)	0.935 µM (active)	9.06 µM (inactive)	0.0231 µM (active)	0.942 µM (active)	
CN(C)/C(=N\C#N)N(Cc1ccccc1)Cc1ccccc1	> 100 µM (inactive)	> 100 µM (inactive)	> 100 µM (inactive)	50.9 µM (inactive)	> 100 µM (inactive)	36.3 µM (inactive)	42.6 µM (inactive)	16.6	> 100 µM (inactive)	> 100 µM (inactive)	> 100 µM (inactive)	> 100 µM (inactive)	87.3 µM (inactive)	72.1 µM (inactive)	98.2 µM (inactive)	80.5 µM (inactive)	> 100 µM (inactive)	> 100 µM (inactive)	
CCCCCCCC/C=C\CCCCCCCC(=O)O [OLEIC ACID]	109 µM (inactive)	149 µM (inactive)	240 µM (inactive)	> 500 µM (inactive)	184 µM (inactive)	> 5 µM (inactive)	92.7 µM (inactive)	177	> 291 µM (inactive)	51.6 µM (inactive)	> 500 µM (inactive)	> 500 µM (inactive)	99.1 µM (inactive)	> 434 µM (inactive)	101 µM (inactive)	158 µM (inactive)	> 500 µM (inactive)	> 500 µM (inactive)	104 µM (inactive)
